The source of these data is ChEMBL document CHEMBL1201862, “PubChem BioAssay data set” (2004).

Test systems include ACHN; CAKI-1; COLO 205; HCT-116; HL-60; HOP-92; NCI-H460; OVCAR-4; OVCAR-5; SF-268; SK-MEL-2; SK-OV-3; T47D; TK-10; UACC-257; UO-31; Malme-3M; NCI-H23; NCI-H522.
Common to all, as to experiment: NCI tumour cell line growth inhibition, 48 h

Each structure is given as a SMILES string.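 1) Cells in 96-well plates. 2) Compound, 48 h, 5 concentrations. 3) Linear interpolation between surrounding doses. 4) Unreached endpoint = highest concentration. Here, GI50 denotes the concentration required for 50% inhibition of growth.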 Active and inactive are the calls of the source. Rule as the data show it: active = GI50 up to about 1.1 µM and inactive = higher. Bounds are passed on as bounds.

As to `CSc1ccc(/C=C2\N=C(c3ccccc3)N(c3nc4cc(Cl)c(F)cc4s3)C2=O)cc1`, the GI50 in the test on ACHN was 36.4 µM (inactive); with CAKI-1, > 100 µM (inactive); with COLO 205, 54.5 µM (inactive); in the test on HCT-116, 36.2 µM (inactive); with HL-60, 38.3 µM (inactive); with HOP-92, 42 µM (inactive). Besides, the GI50 was 57.3 µM (inactive) in the test with NCI-H460; 24.7 µM (inactive) with OVCAR-4; 71.3 µM (inactive) with OVCAR-5; 32.3 µM (inactive) in the test with SF-268; 18.2 µM (inactive) in the test with SK-MEL-2; 64.3 µM (inactive) with SK-OV-3. Moreover, the GI50 with T47D is 26.1 µM (inactive); in the test on TK-10, > 100 µM (inactive); in the test with UACC-257 it was > 100 µM (inactive); in the test on UO-31, 55.8 µM (inactive).
As to `NC[C@H]1Nc2ccccc2[C@@H](O)C1O` (some centres not stated), the GI50 in the test on ACHN, in the test with CAKI-1, with COLO 205, with HCT-116, in the test on HL-60 and with HOP-92 was > 100 µM (inactive) throughout. The GI50 in the test with Malme-3M, with NCI-H23, with NCI-H460, with OVCAR-4, in the test on OVCAR-5 and in the test with SF-268 was > 100 µM (inactive) in each case. Further, the GI50 in the test on SK-MEL-2, with SK-OV-3, in the test with T47D, in the test on TK-10, in the test with UACC-257 and in the test with UO-31 was > 100 µM (inactive) throughout.
As to `COc1cc2cc(C(=O)N3CC(CCl)c4c3cc(N(C)C)c3ccccc43)[nH]c2c(OC)c1OC` (configuration not stated), the GI50 with ACHN is < 0.01 µM (active); with CAKI-1, < 0.01 µM (active); in the test with COLO 205, 0.012 µM (active); in the test on HCT-116 it was < 0.01 µM (active); in the test on HOP-92 it was 0.0417 µM (active); in the test on Malme-3M, 0.0321 µM (active). For the same compound, the GI50 in the test with NCI-H23 was < 0.01 µM (active); in the test with NCI-H460, < 0.01 µM (active); in the test with NCI-H522, < 0.01 µM (active); in the test on OVCAR-4, 0.0163 µM (active); with OVCAR-5, < 0.0108 µM (active); in the test on SF-268 it was < 0.01 µM (active). The GI50 in the test on SK-MEL-2 is < 0.01 µM (active); in the test with SK-OV-3 it was 0.0137 µM (active); with T47D it was < 0.01 µM (active); in the test with TK-10 it was 0.0108 µM (active); with UACC-257, 0.0273 µM (active); with UO-31, < 0.01 µM (active).
Consider `Cc1ccc(S(=O)(=O)c2ccc([N+](=O)[O-])o2)cc1`, for which the GI50 in the test on ACHN was 1.59 µM (inactive); in the test with CAKI-1, 0.597 µM (active); in the test with COLO 205, 0.916 µM (active); in the test on HCT-116, 1.64 µM (inactive); in the test with HOP-92 it was 2.38 µM (inactive); in the test on Malme-3M, 1.08 µM (active). The GI50 in the test with NCI-H23 is 3.52 µM (inactive); with NCI-H460 it was 14.1 µM (inactive); in the test with NCI-H522 it was 0.185 µM (active); with OVCAR-4 it was 2.27 µM (inactive); with OVCAR-5, 2.01 µM (inactive); in the test with SF-268, 11.1 µM (inactive). For the same compound, the GI50 was 9.89 µM (inactive) in the test on SK-MEL-2; 18.7 µM (inactive) with SK-OV-3; 2.36 µM (inactive) in the test on T47D; 1.57 µM (inactive) in the test with TK-10; 1.87 µM (inactive) with UACC-257; 1.44 µM (inactive) in the test with UO-31.
Turning to `C(/Cc1ccc2c(c1)OCO2)=N\N=C1NCCCCN1`, the GI50 in the test with ACHN was > 100 µM (inactive); with COLO 205, > 100 µM (inactive); with HCT-116, 64.7 µM (inactive); in the test with HL-60 it was > 100 µM (inactive); with HOP-92, 32.8 µM (inactive); in the test with Malme-3M it was > 100 µM (inactive). The GI50 was > 100 µM (inactive) in the test on NCI-H23; 45.8 µM (inactive) in the test with NCI-H460; > 100 µM (inactive) in the test on NCI-H522; > 100 µM (inactive) with OVCAR-4; 34.7 µM (inactive) in the test with OVCAR-5; > 100 µM (inactive) in the test with SF-268. Also, the GI50 in the test on SK-MEL-2 is > 100 µM (inactive); with SK-OV-3, 27.9 µM (inactive); in the test with T47D, 54.5 µM (inactive); in the test with TK-10, > 100 µM (inactive); in the test with UACC-257, > 100 µM (inactive); with UO-31 it was 43.9 µM (inactive).
Regarding `CC1SCCc2nc3ccccc3n21` (configuration not stated), the GI50 in the test on CAKI-1, with COLO 205, with HCT-116, with HL-60, with HOP-92 and in the test with NCI-H23 was > 100 µM (inactive) in each case. The GI50 in the test on NCI-H460, with OVCAR-4, in the test on OVCAR-5, in the test on SF-268, in the test with SK-MEL-2 and in the test with SK-OV-3 was > 100 µM (inactive) in each case. The GI50 in the test on T47D, with TK-10, in the test on UACC-257 and in the test on UO-31 was > 100 µM (inactive) each time.
Take `CN(C)N1C(=O)c2ccccc2NC1c1ccccc1` (configuration not stated): the GI50 in the test with ACHN, in the test with CAKI-1, with COLO 205, in the test with HCT-116, in the test on HOP-92 and with Malme-3M was > 100 µM (inactive) throughout. The GI50 with NCI-H23, with NCI-H460, with NCI-H522, in the test with OVCAR-4, with OVCAR-5 and with SF-268 was > 100 µM (inactive) in each case. The GI50 in the test on SK-MEL-2, in the test on SK-OV-3, in the test on T47D, in the test with TK-10, in the test on UACC-257 and in the test with UO-31 was > 100 µM (inactive) in each case.
`CNC(=O)N(CCC#N)CCN(CCN(C(=O)NC)c1ccccc1)C(=O)NC`: the GI50 in the test with ACHN, in the test with CAKI-1, with COLO 205, in the test with HCT-116, with HOP-92 and with Malme-3M was > 100 µM (inactive) in each case. For the same compound, the GI50 in the test with NCI-H23, with NCI-H460, in the test with NCI-H522, in the test with OVCAR-4, with OVCAR-5 and in the test on SK-MEL-2 was > 100 µM (inactive) each time. Moreover, the GI50 with SK-OV-3, in the test with T47D, in the test with TK-10, with UACC-257 and in the test with UO-31 was > 100 µM (inactive) each time.
With `COc1ccc(/C=C2\CCCCCC2=O)cc1`, the GI50 in the test on ACHN, in the test on CAKI-1, with COLO 205, in the test on HCT-116, with HOP-92 and in the test on Malme-3M was > 100 µM (inactive) in each case. In addition, the GI50 in the test on NCI-H23, with NCI-H460, in the test on NCI-H522, in the test with OVCAR-4, in the test on OVCAR-5 and in the test on SF-268 was > 100 µM (inactive) throughout. For the same compound, the GI50 in the test on SK-MEL-2, in the test with SK-OV-3, with T47D, in the test with TK-10, in the test on UACC-257 and in the test with UO-31 was > 100 µM (inactive) in each case.
As for `COc1cccc(CCCNC(=O)Cc2ccccc2CO)c1`, the GI50 in the test on ACHN, with CAKI-1, in the test with COLO 205, in the test with HCT-116, in the test with HL-60 and in the test on HOP-92 was > 100 µM (inactive) each time. Besides, the GI50 with Malme-3M, in the test on NCI-H23, in the test with NCI-H460, in the test on OVCAR-4, with OVCAR-5 and with SK-MEL-2 was > 100 µM (inactive) throughout. The GI50 with SK-OV-3 is > 100 µM (inactive); in the test on T47D, 38.1 µM (inactive); in the test on TK-10, > 100 µM (inactive); in the test with UACC-257 it was > 100 µM (inactive); with UO-31 it was > 100 µM (inactive).
On to `O=c1[nH]c(=O)n([C@H]2C[C@H](O)[C@@H](CO)O2)cc1Br` [BROXURIDINE], for which the GI50 in the test with ACHN is > 100 µM (inactive); in the test on CAKI-1, > 100 µM (inactive); with COLO 205, > 100 µM (inactive); in the test with HCT-116, > 94 µM (inactive); in the test with HOP-92, > 100 µM (inactive); in the test on Malme-3M, > 85.9 µM (inactive). In addition, the GI50 in the test with NCI-H23 is > 100 µM (inactive); with NCI-H460, > 100 µM (inactive); in the test with NCI-H522 it was > 78.3 µM (inactive); in the test with OVCAR-4 it was > 100 µM (inactive); with OVCAR-5 it was > 100 µM (inactive); in the test with SF-268, > 100 µM (inactive). For the same compound, the GI50 in the test with SK-MEL-2, with SK-OV-3, with T47D, with TK-10, with UACC-257 and with UO-31 was > 100 µM (inactive) in each case.
